Measured values as given in ChEMBL document CHEMBL1201862, “PubChem BioAssay data set” (2004).
Calls of active or inactive are those of the source.

Key:
H4 = test: Luminescence Cell-Based Dose Response HTS to Identify Activators of 5'UTR Stem-Loop Driven Prion Protein mRNA Translation in H4 Neuroglioblastoma Cells. [Related pubchem assays: 1829 (Project Summary), 1814 (Primary HTS)]; type: functional; conditions: Homo sapiens
Major prion protein = Major prion protein (Homo sapiens, UniProt P04156); type: functional, cell-based
cells [1] = test: cells
[2] = Luminescence Cell-Based Dose Response HTS to Identify Activators of Luciferase Translation or Activity in H4 […] Cells. [Related pubchem assays: 1829 (Project Summary), 1814 (Primary HTS)]; type: functional
[3] = molecular target: T1, Corticotropin-releasing factor receptor 2/Corticotropin-releasing factor-binding protein (Homo sapiens, UniProt P24387+Q13324); test: Dose Response confirmation of uHTS hits for small molecule antagonists of the CRF-binding protein and CRF-R2 receptor complex.; type: functional; conditions: read-out: IC50_Mean
T1 sequence (Q13324 whole entry): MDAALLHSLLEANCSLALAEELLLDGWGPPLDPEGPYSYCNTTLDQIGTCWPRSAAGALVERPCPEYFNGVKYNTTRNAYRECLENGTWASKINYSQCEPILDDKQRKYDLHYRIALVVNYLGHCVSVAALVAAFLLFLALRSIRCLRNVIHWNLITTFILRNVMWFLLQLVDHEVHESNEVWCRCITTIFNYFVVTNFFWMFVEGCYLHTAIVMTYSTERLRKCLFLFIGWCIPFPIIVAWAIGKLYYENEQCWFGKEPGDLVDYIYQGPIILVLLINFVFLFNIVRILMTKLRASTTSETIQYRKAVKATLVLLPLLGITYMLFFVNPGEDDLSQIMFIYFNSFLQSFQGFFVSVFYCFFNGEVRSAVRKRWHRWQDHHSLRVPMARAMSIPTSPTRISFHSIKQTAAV
T1 sequence (P24387 whole entry): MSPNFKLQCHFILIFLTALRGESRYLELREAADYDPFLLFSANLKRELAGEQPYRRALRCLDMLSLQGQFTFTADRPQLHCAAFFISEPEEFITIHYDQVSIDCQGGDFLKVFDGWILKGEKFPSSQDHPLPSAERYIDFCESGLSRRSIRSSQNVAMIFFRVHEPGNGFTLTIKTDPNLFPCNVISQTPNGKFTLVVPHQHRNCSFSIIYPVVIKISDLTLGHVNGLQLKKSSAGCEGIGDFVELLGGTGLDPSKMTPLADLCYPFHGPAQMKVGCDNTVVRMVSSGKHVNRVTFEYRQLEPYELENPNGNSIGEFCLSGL

[4] = molecular target: T1, Corticotropin-releasing factor receptor 2/Corticotropin-releasing factor-binding protein; test: activators of CRF receptor 2 with binding protein – uHTS hits, confirmation (AID 602473); type: functional; conditions: read-out: EC50_Mean
[5] = molecular target: T2, Zinc finger protein mex-5 (Caenorhabditis elegans, UniProt Q9XUB2); test: potency of MEX-5 RNA-binding blockers – biochemical, C. elegans, fluorescence polarization, dose response (AID 1960)
T2 sequence (Q9XUB2 whole entry): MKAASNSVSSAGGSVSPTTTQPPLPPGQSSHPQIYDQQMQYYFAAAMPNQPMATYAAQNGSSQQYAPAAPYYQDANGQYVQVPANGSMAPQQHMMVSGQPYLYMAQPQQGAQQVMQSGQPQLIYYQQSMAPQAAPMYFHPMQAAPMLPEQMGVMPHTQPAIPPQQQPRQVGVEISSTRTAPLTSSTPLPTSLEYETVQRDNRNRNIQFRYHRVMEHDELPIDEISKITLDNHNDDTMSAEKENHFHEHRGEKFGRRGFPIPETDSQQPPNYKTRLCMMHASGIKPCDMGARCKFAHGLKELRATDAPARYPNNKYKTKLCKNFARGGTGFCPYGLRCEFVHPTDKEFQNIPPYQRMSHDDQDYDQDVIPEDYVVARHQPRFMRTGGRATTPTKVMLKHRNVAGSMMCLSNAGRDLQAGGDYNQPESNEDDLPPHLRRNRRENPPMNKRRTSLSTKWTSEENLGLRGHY

[6] = Luminescence Cell-Based Dose Confirmation HTS to Identify Activators of 5'UTR Stem-Loop Driven Alpha-Synuclein mRNA Translation in H4 Neuroglioblastoma Cells. [Related pubchem assays: 1829 (Project Summary), 1814 (Primary HTS)]; type: functional
[7] = molecular target: T3, Sentrin-specific protease 1 (Homo sapiens, UniProt Q9P0U3); test: SENP1 catalytic domain blockers, concentration series – biochemical, kinetic FRET, dose response (AID 651697); type: functional; conditions: read-out: IC50_Mean
T3 sequence (Q9P0U3 whole entry): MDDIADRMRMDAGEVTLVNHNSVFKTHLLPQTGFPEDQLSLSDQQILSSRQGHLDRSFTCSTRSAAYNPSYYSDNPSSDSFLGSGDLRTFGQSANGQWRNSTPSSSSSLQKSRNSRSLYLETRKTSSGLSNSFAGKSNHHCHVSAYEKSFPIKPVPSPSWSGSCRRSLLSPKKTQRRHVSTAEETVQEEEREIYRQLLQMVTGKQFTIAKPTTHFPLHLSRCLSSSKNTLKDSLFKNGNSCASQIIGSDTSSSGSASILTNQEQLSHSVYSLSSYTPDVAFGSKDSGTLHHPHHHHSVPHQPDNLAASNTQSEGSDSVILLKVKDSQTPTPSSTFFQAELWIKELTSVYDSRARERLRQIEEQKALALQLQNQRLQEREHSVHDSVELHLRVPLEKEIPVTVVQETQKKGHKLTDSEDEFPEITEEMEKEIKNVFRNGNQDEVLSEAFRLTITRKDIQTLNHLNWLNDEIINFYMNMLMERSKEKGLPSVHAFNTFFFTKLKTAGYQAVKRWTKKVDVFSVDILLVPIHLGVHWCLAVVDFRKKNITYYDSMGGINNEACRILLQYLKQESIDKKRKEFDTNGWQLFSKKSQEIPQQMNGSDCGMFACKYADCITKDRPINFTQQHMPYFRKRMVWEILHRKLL

[8] = molecular target: T4, RNA-binding protein pos-1 (Caenorhabditis elegans, UniProt G5EF15); test: disruptors of C. elegans POS-1 RNA interaction – biochemical, fluorescence polarization, dose response (AID 1964);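 also: purified POS-1 fused to maltose binding protein made in E. coli; potency of compounds blocking POS-1 binding to fluorescent RNA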
T4 sequence (G5EF15 whole entry): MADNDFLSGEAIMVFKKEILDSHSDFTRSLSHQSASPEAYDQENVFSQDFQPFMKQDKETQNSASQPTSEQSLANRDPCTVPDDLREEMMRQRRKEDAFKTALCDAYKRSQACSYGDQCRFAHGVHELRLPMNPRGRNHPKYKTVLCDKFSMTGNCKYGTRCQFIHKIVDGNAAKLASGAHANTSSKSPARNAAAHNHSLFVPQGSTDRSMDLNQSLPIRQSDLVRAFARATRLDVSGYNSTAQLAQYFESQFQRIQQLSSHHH

[9] = Counterscreen for inhibitors of Trypanosoma brucei methionyl tRNA synthetase (MetRS): Luminescence-based cell-based high throughput dose response assay to identify compounds that are cytotoxic to Jurkat human T lymphocyte cells.; type: functional
[10] = molecular target: T5, Methionyl-tRNA synthetase, putative (Trypanosoma brucei brucei, UniProt Q38C91); type: functional, Trypanosoma brucei brucei strain 927/4 GUTat10.1
T5 sequence (Q38C91 whole entry): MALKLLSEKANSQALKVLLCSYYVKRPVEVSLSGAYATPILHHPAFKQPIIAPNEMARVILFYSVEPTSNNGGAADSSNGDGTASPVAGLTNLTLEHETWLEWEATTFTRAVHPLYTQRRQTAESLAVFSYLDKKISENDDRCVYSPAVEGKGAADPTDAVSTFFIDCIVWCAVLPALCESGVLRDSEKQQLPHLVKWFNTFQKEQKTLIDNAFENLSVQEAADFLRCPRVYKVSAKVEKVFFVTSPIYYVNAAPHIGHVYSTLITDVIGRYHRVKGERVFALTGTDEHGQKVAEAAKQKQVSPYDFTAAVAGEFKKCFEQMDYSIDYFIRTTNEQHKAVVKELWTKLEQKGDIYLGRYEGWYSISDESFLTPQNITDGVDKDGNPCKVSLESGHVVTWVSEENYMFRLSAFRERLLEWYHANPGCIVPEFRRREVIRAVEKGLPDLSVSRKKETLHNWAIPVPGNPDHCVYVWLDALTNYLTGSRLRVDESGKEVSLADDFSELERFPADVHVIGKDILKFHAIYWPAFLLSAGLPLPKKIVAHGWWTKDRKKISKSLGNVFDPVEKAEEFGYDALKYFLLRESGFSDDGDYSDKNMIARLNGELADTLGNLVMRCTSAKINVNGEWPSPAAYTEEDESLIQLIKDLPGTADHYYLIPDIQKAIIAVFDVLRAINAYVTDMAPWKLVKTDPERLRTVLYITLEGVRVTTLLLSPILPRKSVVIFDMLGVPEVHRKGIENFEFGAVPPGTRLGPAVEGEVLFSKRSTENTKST

[11] = molecular target: T5, Methionyl-tRNA synthetase, putative; type: functional, Trypanosoma brucei brucei strain 927/4 GUTat10.1; remark: listed apart in the source
Beta-lactamase [12] = molecular target: T6, Beta-lactamase (Pseudomonas aeruginosa, UniProt Q79MP6); test: inhibition of IMP-1 beta-lactamase activity – biochemical, epi-absorbance, selectivity assay for VIM-2 inhibitor project, dose response (AID 1920)
Beta-lactamase [13] = molecular target: Beta-lactamase (Salmonella choleraesuis (strain SC-B67), UniProt Q5J463); test: Epi-absorbance-based counterscreen for selective VIM-2 inhibitors: dose response biochemical high throughput screening assay to identify inhibitors of TEM-1 serine-beta-lactamase.
Beta-lactamase [14] = molecular target: T6, Beta-lactamase; test: […] counterscreen for selective VIM-2 inhibitors: dose response biochemical high throughput screening assay to identify inhibitors of IMP-1 metallo-beta-lactamase.
[15] = molecular target: T7, Trace amine-associated receptor 1 (Homo sapiens, UniProt Q96RJ0); test: Counterscreen for agonists of the human trace amine associated receptor 1 (hTAAR1): Fluorescence-based cell-based high throughput dose response assay to identify hTAAR1 agonist that also desensitize TAAR1 receptor response.; type: functional
T7 sequence (Q96RJ0 whole entry): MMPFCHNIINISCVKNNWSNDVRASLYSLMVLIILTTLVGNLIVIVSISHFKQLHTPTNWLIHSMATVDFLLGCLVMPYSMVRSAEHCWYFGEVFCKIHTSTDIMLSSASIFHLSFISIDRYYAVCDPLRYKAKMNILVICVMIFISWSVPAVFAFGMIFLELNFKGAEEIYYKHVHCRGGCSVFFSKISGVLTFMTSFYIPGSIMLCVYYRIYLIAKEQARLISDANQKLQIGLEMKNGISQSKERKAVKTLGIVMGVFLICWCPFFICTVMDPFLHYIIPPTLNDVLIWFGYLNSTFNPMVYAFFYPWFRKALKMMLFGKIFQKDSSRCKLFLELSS

[16] = molecular target: T7, Trace amine-associated receptor 1; test: Fluorescence-based cell-based high throughput dose response assay to identify agonists of the human trace amine associated receptor 1 (TAAR1).; type: functional
cells [17] = type: functional, cell-based
cells [18] = type: functional, cell-based; remark: listed apart in the source
[19] = molecular target: Arf-GAP with SH3 domain, ANK repeat and PH domain-containing protein 1 (Homo sapiens, UniProt Q9ULH1); type: functional;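 also: biochemical fluorescence polarization dose–response screen measuring inhibition of ASAP1; ASAP1 GAP domain stimulating GTP hydrolysis by truncated human ARF1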
[20] = inhibitors of EBV LMP1 NF-kappaB signaling – cell-based, luciferase reporter, luminescence, dry powder, set 2, dose response (AID 624376); type: functional
[21] = viability loss in HEK293 kidney cells – cell-based, cherry-picks, set 5, cytotoxicity control, dose response (AID 1053117); type: functional

## CC1CCCN(C(=O)CSc2cnc3ccccc3n2)C1 (stereo unspecified)
H4
  EC50: 11 µM (active)
Major prion protein
  IC50: 5.87 µM (active)
Cells [1]
  IC50: > 138 µM (inactive)
[2]
  EC50: 5.25 µM (active)

## COc1ccc2c(C)cc(SCc3c(C)noc3C)nc2c1
[3]
  IC50: > 47.1 µM (inactive)
[4]
  EC50: > 53 µM (inactive)
Major prion protein
  IC50: 4.31 µM (active)
Cells [1]
  IC50: > 138 µM (inactive)

## COc1ccc(P2(=O)Nc3ccccc3N2)cc1
H4
  EC50: 7.44 µM (active)
[5]
  EC50: 103 µM (active)
[6]
  EC50: > 120 µM (not active)
[7]
  IC50: 74.3 µM (inactive)
[8]
  EC50: > 300 µM (not active)
[2]
  EC50: 10.5 µM (active)

## Cc1ccc(NC(=O)C(C)c2cccc(C(=O)c3ccccc3)c2)cc1 (stereo unspecified)
[9]
  IC50: 83.3 µM (inactive)
[10]
  IC50: 3.15 µM (active)
[11]
  IC50: 7.61 µM (active)

## O=C(CSc1nnc(NC(=O)c2c(F)cccc2F)s1)NCc1ccccc1
Beta-lactamase [12]
  IC50: > 59.6 µM (inactive)
Beta-lactamase [13]
  IC50: > 59.6 µM (inactive)
Beta-lactamase [14]
  IC50: > 59.6 µM (inactive)

## O=C(O)C1C2C=CC(C2)C1C(=O)NCCc1ccccc1 (stereo unspecified)
[15]
  IC50: 5.26 µM (active)
[16]
  EC50: 0.14 µM (active)
Cells [17]
  EC50: > 29.9 µM (inactive)
Cells [18]
  IC50: > 29.9 µM (inactive)

## COc1ccc(/C=C2\C(=O)NC(=O)c3ccccc32)cc1OC
[19]
  IC50: 165 µM (inactive)

## OC(c1cc(F)cc(Cl)c1)c1nc(-c2cccc(C(F)(F)F)c2)c[nH]1 (stereo unspecified)
[9]
  IC50: 42.2 µM (inactive)
[10]
  IC50: 17.5 µM (inactive)
[11]
  IC50: 27.7 µM (inactive)

## O=C(N[C@@H](Cc1cccnc1)C(=O)N1CCC[C@H]1C(=O)NCCc1ccccc1Cl)c1ccccc1
[15]
  IC50: 5.16 µM (active)
[16]
  EC50: 4.3 µM (active)
Cells [17]
  EC50: > 29.9 µM (inactive)
Cells [18]
  IC50: > 29.9 µM (inactive)

## Cc1noc(C)c1S(=O)(=O)Nc1ccc2c(c1)C(=O)N([C@@H](C)CO)C[C@@H](C)[C@H](CN(C)Cc1ccc(C(F)(F)F)cc1)OCCCC[C@@H](C)O2
[20]
  AbsAC35: 151.1 µM

## C[C@H]1CN([C@@H](C)CO)C(=O)c2c(c3ccccc3n2C)-c2ccccc2CO[C@@H]1CN(C)C(=O)Nc1ccc(F)cc1
[20]
  AbsAC35: 78.41 µM

## C[C@H]1CN([C@@H](C)CO)C(=O)c2cc(-c3ccccc3)cnc2O[C@H]1CN(C)C(=O)c1cccc(F)c1
[21]
  AC50: > 52 µM (inactive)

## Cc1ccc(/C=N/NC(=O)CCCOc2ccc(Cl)cc2Cl)cc1[N+](=O)[O-]
[19]
  IC50: 26.1 µM (inactive)
